Assay results taken from patent US20230012368A1 (Hoffmann-La Roche Inc., priority 2018, published 2023).
Where a name gives a salt, the structure may show the parent alone. Read-outs that look alike come from different tables or passages of the source.

System: Acinetobacter baumannii ATCC 17978
Assay: Antimicrobial susceptibility testing: 90% growth inhibitory concentration (IC90) determination
Format: cell-based
Conditions: 90% growth inhibitory concentration, Acinetobacter baumannii ATCC17978, Iso-Sensitest broth, OD 600 nm over 16h, read-out: ATCC17978 IC90
Method in brief: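 Compounds serially twofold diluted (e.g. 50 to 0.097 μM final) in Iso-Sensitest broth, inoculated at ~5×10^(5) CFU/ml, incubated at 35±2° C. OD600 read every 20 minutes over 16h. IC90 taken as concentration inhibiting 90% of growth during logarithmic phase.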

[1] = Acinetobacter baumannii, ATCC17978, 16 h

Structure (SMILES) | IC90 [1] [µM] | IC90 [µM]
CCc1cc(Nc2nccn3c(-c4ccc(OC)c(F)c4F)cnc23)ccc1C(=O)NCC(=O)NCCN1CCC1 [Example 446, N-[2-[2-(azetidin-1-yl)ethylamino]-2-oxo-ethyl]-4-[[3-(2,3-difluoro-4-methoxy-phenyl)imidazo[1,2-a]pyrazin-8-yl]amino]-2-ethyl-benzamide; formic acid] | 0.3 | 
CCc1cc(Nc2nccn3c(-c4ccc(OC)c(F)c4F)cnc23)ccc1C(=O)NC(C)(C)CN [Example 99, N-(1-amino-2-methylpropan-2-yl)-4-((3-(2,3-difluoro-4-methoxyphenyl)imidazo [1,2-a]pyrazin-8-yl)amino)-2-ethylbenzamide hydrochloride] | 0.35 | 
CCc1cc(Nc2nccn3c(-c4ccc(Oc5ccccn5)c(F)c4F)cnc23)ccc1C(=O)NC [Example 472, 4-[[3-[2,3-difluoro-4-(2-pyridyloxy)phenyl]imidazo [1,2-a]pyrazin-8-yl]amino]-2-ethyl-N-methyl-benzamide] | 0.21 | 
COc1ccc(-c2cnc3c(Nc4ccc(C(=O)N[C@@H](C)CNC(C)=N)c(Cl)c4)nccn23)c(F)c1F [Example 487, 2-chloro-4-[[3-(2,3-difluoro-4-methoxyphenyl)imidazo[1,2-a]pyrazin-8-yl]amino]-#N!- [(2#S!)-1-(ethanimidoylamino)propan-2-yl]benzamide;formic acid] | 0.12 | 
Cc1cc(Nc2nccn3c(-c4ccc(OCC#N)c(F)c4F)cnc23)ccc1C(=O)NC[C@@H](N)CNC(=O)[C@@H]1C[C@@H](O)CN1 [Example 473, (2S,4R)-N-[(2R)-2-amino-3-[[4-[[3-[4-(cyanomethoxy)-2,3-difluoro-phenyl]imidazo[1,2-a]pyrazin-8-yl]amino]-2-methyl-benzoyl]amino]propyl]-4-hydroxy-pyrrolidine-2-carboxamide; formic acid] | 0.21 | 
CCc1cc(Nc2nccn3c(-c4ccc(OC(F)F)c(F)c4F)cnc23)ccc1C(=O)NCCCNC(=O)CN(C)C [Example 324, 4-[[3-[4-(difluoromethoxy)-2,3-difluorophenyl]imidazo[1,2-a]pyrazin-8-yl]amino]-N-[3-[[2-(dimethylamino)acetyl]amino]propyl]-2-ethylbenzamide] | 0.11 | 
COc1ccc(-c2cnc3c(Nc4ccc(C(=O)NCCCCCCN)c(C)c4)nccn23)c(F)c1F [Example 493, N-(6-aminohexyl)-4-((3-(2,3-difluoro-4-methoxyphenyl)imidazo[1,2-a]pyrazin-8-yl)amino)-2-methylbenzamide hydrochloride] | 0.035 | 
C#CCCCNC(=O)c1ccc(Nc2nccn3c(-c4ccc(OC)c(F)c4F)cnc23)cc1CC [Example 481, 4-((3-(2,3-difluoro-4-methoxyphenyl)imidazo[1,2-a]pyrazin-8-yl)amino)-2-ethyl-N-(pent-4-yn-1-yl)benzamide] | 0.26 | 
CCc1cc(Nc2nccn3c(-c4ccc(Oc5ccccn5)c(F)c4F)cnc23)ccc1C(=O)NCCCCCC(=O)N1CCN[C@H](CO)C1 [Example 478, 4-[[3-[2,3-difluoro-4-(2-pyridyloxy)phenyl]imidazo [1,2-a]pyrazin-8-yl]amino]-2-ethyl-N-[6-[(3S)-3-(hydroxymethyl)piperazin-1-yl]-6-oxo-hexyl]benzamide] | 0.38 | 
COc1ccc(-c2cnc3c(Nc4ccc(C(=O)NCCC5CCOCC5)c(C)c4)nccn23)cc1F [Example 37, 4-[[3-(3-fluoro-4-methoxy-phenyl)imidazo[1,2-a]pyrazin-8-yl]amino]-2-methyl-N-(2-tetrahydropyran-4-ylethyl)benzamide; 2,2,2-trifluoroacetic acid] |  | 0.24
CCc1cc(Nc2nccn3c(-c4ccc(Oc5ncccn5)c(F)c4F)cnc23)ccc1C(=O)NCC1CCN(CC2CCNC2)CC1 (stereo not shown) [Example 549, 4-((3-(2,3-difluoro-4-(pyrimidin-2-yloxy)phenyl)imidazo[1,2-a]pyrazin-8-yl)amino)-2-ethyl-N-((1-(pyrrolidin-3-ylmethyl)piperidin-4-yl)methyl)benzamide formate] | 0.49 | 
CCc1cc(Nc2nccn3c(-c4ccc(OC)c(F)c4F)cnc23)ccc1C(=O)N[C@H](C)CNC(=O)[C@@H](N)CCCCN [Example 465, N-[(1R)-2-[[(2S)-2,6-diaminohexanoyl]amino]-1-methyl-ethyl]-4-[[3-(2,3-difluoro-4-methoxy-phenyl)imidazo[1,2-a]pyrazin-8-yl]amino]-2-ethyl-benzamide] | 0.3 | 
Cc1cc(Nc2nccn3c(-c4ccc(OC(F)F)cc4)cnc23)ccc1C(=O)N[C@H](C)CN [Example 270, N-[(2R)-1-aminopropan-2-yl]-4-[[3-[4-(difluoromethoxy)phenyl]im-idazo[1,2-a]pyrazin-8-yl]amino]-2-methylbenzamide;hydrochlo-ride] | 7.7 | 
O=C(NCc1ccccn1)c1ccc(Nc2nccn3c(-c4ccc(OC(F)F)cc4)cnc23)cc1Cl [Example 111, 2-chloro-4-((3-(4-(difluoromethoxy)phenyl)imidazo[1,2-a]pyrazin-8-yl)amino)-N-(pyridin-2-ylmethyl)benzamide] | 2.1 | 
CCc1cc(Nc2nccn3c(-c4ccc(OC(F)F)c(F)c4F)cnc23)ccc1C(=O)NCCNC(=O)[C@@H](N)CCCNC(=N)N [Example 333, N-[2-[[(2S)-2-amino-5-carbamimidamidopentanoyl]amino]ethyl]-4-[[3-[4-(difluoromethoxy)-2,3-difluorophenyl]imidazo[1,2-a]pyrazin-8-yl]amino]-2-ethylbenzamide;formic acid] | 0.34 | 
CNC(=O)c1ccc(Nc2nccn3c(-c4ccc(OC(F)F)cc4)cnc23)cc1COCCO [Example 168, 4-[[3-[4-(difluoromethoxy)phenyl]imidazo[1,2-a]pyrazin-8-yl]amino]-2-(2-hydroxyethoxymethyl)-N-methyl-benzamide] | 2 | 
COc1ccc(-c2cnc3c(Nc4ccc(C(=O)NCC5CCOCC5)c(Cl)c4)nccn23)c(F)c1F [Example 40, 2-chloro-4-[[3-(2,3-difluoro-4-methoxy-phenyl)imidazo[1,2-a]pyrazin-8-yl]amino]-N-(tetrahydropyran-4-ylmethyl)benzamide; 2,2,2-trifluoroacetic acid] |  | 0.18
CCc1cc(Nc2nccn3c(-c4ccc(OC)c(F)c4F)cnc23)ccc1C(=O)NCC(O)CO (stereo not shown) [Example 483, 4-((3-(2,3-difluoro-4-methoxyphenyl)imidazo[1,2-a]pyrazin-8-yl)amino)-N-(2,3-dihydroxypropyl)-2-ethylbenzamide] | 0.21 | 

Continued, in another order:

IC90 [1] [µM] | Structure (SMILES) | IC90 [µM]
5 | COc1ccc(-c2cnc3c(Nc4ccc(C(=O)NCCCN(C)C)cc4)nccn23)cc1Cl [Example 263, 4-[[3-(3-chloro-4-methoxyphenyl)imidazo[1,2-a]pyrazin-8-yl]amino]-N-[3-(dimethylamino)propyl]benz-amide] | 
0.44 | Cc1cc(Nc2nccn3c(-c4ccc(OC(F)F)cc4)cnc23)ccc1C(=O)N(C)CCCCN [Example 200, N-(4-aminobutyl)-4-[[3-[4-(difluoromethoxy)phenyl]im-idazo[1,2-a]pyrazin-8-yl]amino]-N,2-dimethylbenzamide;hydrochlo-ride] | 
0.51 | COc1ccc(-c2cnc3c(Nc4ccc(C(=O)N(C)CCOn5nnc6cccnc65)c(C)c4)nccn23)cc1F [Example 305, 4-[[3-(3-fluoro-4-methoxyphenyl)imidazo[1,2-a]pyrazin-8-yl]amino]-N,2-dimethyl-N-[2-(triazolo[4,5-b]pyridin-3-yloxy)ethyl]benzamide] | 
1.9 | Cc1cc(Nc2nccn3c(-c4ccc(OC(F)F)cc4)cnc23)ccc1C(=O)N(C)CC(=O)N1CCN(C)CC1 [Example 170, 4-[[3-[4-(difluoromethoxy)phenyl]im-idazo[1,2-a]pyrazin-8-yl]amino]-N,2-dimethyl-N-[2-(4-methylpiperazin-1-yl)-2-oxoethyl]benzamide] | 
1 | Cc1cc(Nc2nccn3c(-c4ccc(OC(F)F)cc4)cnc23)ccc1C(=O)N(C)CCCN1CCNCC1 [Example 219, 4-[[3-[4-(difluoromethoxy)phenyl]im-idazo[1,2-a]pyrazin-8-yl]amino]-N,2-dimethyl-N-(3-piperazin-1-ylpropyl)benzamide;hydrochlo-ride] | 
0.9 | Cc1cc(Nc2nccn3c(-c4ccc(OC(F)F)cc4)cnc23)ccc1C(=O)NCCNC(=O)N1CCNCC1 [Example 345, N-[2-[[4-[[3-[4-(difluoromethoxy)phenyl]im-idazo[1,2-a]pyrazin-8-yl]amino]-2-methylbenzoyl]amino]ethyl] piperazine-1-carboxamide] | 
0.53 | COc1ccc(-c2cnc3c(Nc4ccc(C(=O)N(C)CC5CCNCC5)c(Cl)c4)nccn23)cc1F [Example 205, 2-chloro-4-[[3-(3-fluoro-4-methoxyphenyl)imidazo[1,2-a]pyrazin-8-yl]amino]-N-methyl-N-(piperidin-4-ylmethyl)benzamide;hydrochlo-ride] | 
0.054 | CCc1cc(Nc2nccn3c(-c4ccc(OC(F)F)c(F)c4F)cnc23)ccc1C(=O)NCCC(=O)N1CCNCC1 [Example 542, 4-((3-(4-(difluoromethoxy)-2,3-difluorophenyl)imidazo[1,2-a]pyrazin-8-yl)amino)-2-ethyl-N-(3-oxo-3-(piperazin-1-yl)propyl)benzamide 2,2,2-trifluoroacetate] | 
0.21 | COc1ccc(-c2cnc3c(Nc4ccc(C(=O)N(C)CCC(=O)N5CCNCC5)c(C)c4)nccn23)cc1F [Example 3, 4-[[3-(3-fluoro-4-methoxy-phenyl)imidazo[1,2-a]pyrazin-8-yl]amino]-N,2-dimethyl-N-(3-oxo-3-piperazin-1-yl-propyl)benzamide] | 
0.061 | CCc1cc(Nc2nccn3c(-c4ccc(OC)c(F)c4F)cnc23)ccc1C(=O)NCC1CN(C(=O)CN)C1 [Example 532, N-[[1-(2-aminoacetyl)azetidin-3-yl]methyl]-4-[[3-(2,3-difluoro-4-methoxy-phenyl)imidazo[1,2-a]pyrazin-8-yl]amino]-2-ethyl-benzamide; formic acid] | 
